Test results: patent US9220718B2, “Sonosensitive liposome, pharmaceutical composition including the same, and method of delivering active agent to subject using the sonosensitive liposome” (Samsung Electronics Co., Ltd., priority 2013, dated 2015)

Test system: Hela cells
Assay: Cell viability by WST assay (WST-8, Cell Counting Kit-8)
Format: cell-based
Settings: 10 ul of radical DX, 20 ug/ml of distilled water
Method: The same liposomes were exposed to ultrasound for 5 minutes at different amplitudes (i.e., 50%, 75%, and 100% of the maximum amplitude) at a frequency of 20 kHz. 10 ul of the sonicated liposomes (DX concentration of 20 ug/ml) was immediately added to Hela cells as described above, and then, incubated for 30 minutes. As a control group, a group treated with 10 ul of PBS, a group treated with 10 ul of radical DX (20 ug/ml of distilled water), and a group wherein HeLa cells are incubated at a temperature of 42° C. were all included. The cell viability thereof was obtained by counting viable cells using a WST assay [2-(2-methoxy-4-nitrophenyl)-3-(4-nitrophenyl)-5-(2,4-disulfophenyl)-2H-tetrazolium, monosodium salts] (WST-8, Cell Counting Kit-8, Dojindo, Japan).

COc1cccc2c1C(=O)c1c(O)c3c(c(O)c1C2=O)C[C@@](O)(C(=O)CO)C[C@@H]3O[C@H]1C[C@H](N)[C@H](O)[C@H](C)O1 [radical Dx, Doxorubicin]
cell viability, compared with the sonicated liposomes (about 15%): similar
